Data as given in paper PMC12641998, “Development of Cell-Permeable Adenylosuccinate Lyase Inhibitor” (Methods and Protocols, 2025).
“Also recorded” adds a separate entry of the source.

Columns and labels:
[1] = Permeability through an in vitro model of blood-brain barrier; type: in vitro ADME; conditions: Figure S7, n = 3
Description: (1 picture or pasted object on this page, not shown here)

[2] = system: ADSL in HeLa cells; experiment: Cellular SAICAR, AICAR, S-AMP and AMP levels by HILIC-HPLC-MS; type: cell-based, human; conditions: 12 h, triethylammonium salt form
Protocol: Cellular experiments and the measurement of nucleotides were carried out as we previously reported. […] The media were removed, and cells were washed five times with Dulbecco’s phosphate-buffered saline. Cells were lysed in ice-cold extraction solvent (95% methanol with 10 mM triethylammonium bicarbonate). The lysates were transferred to a centrifuge tube. Debris was removed by centrifugation at 150,000× g for 10 min at 4 °C. The supernatant was passed through Amicon Ultracel centrifugal filters (molecular weight cut-off 3 kDa). The filtrates were dried in vacuum and dissolved in 0.10 mL of extraction solvent. A 10 μL portion of this solution was subjected to HILIC-MS as we previously described. To measure cell proliferation, cells were detached by trypsin-EDTA and counted using a Moxi-Z cell counter as we previously described.
Next, we asked whether 1 inhibits ADSL in mammalian cells. […] Cells were lysed, and the amounts of SAICAR and S-AMP were measured by HILIC-HPLC-MS as we previously reported (Figure 6).

[3] = target: T1, recombinant human ADSL (Homo sapiens, UniProt P30566); experiment: ADSL enzyme activity assay (A280); type: biochemical; conditions: for effect on ADSL in subsequent tests after the screen: follow-up of screening hits
T1 construct: made in house
T1 sequence (P30566 1-484): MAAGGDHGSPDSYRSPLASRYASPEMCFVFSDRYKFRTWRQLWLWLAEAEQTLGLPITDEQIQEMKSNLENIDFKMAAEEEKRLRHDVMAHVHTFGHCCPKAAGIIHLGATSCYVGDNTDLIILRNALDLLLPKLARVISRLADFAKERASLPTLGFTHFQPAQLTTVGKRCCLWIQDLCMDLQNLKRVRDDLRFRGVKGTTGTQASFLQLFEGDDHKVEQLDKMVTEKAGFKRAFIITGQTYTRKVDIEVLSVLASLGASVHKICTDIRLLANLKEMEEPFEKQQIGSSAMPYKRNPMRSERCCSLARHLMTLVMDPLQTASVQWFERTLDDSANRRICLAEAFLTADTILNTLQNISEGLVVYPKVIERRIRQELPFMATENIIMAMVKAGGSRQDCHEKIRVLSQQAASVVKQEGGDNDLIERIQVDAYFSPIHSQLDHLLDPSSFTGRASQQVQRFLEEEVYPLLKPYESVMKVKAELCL
Protocol: ADSL activity assays were performed as described in the literature. In brief, 0.60 mL solution containing recombinant human ADSL (0–2 μM), the test compound, 20 mM HEPES, pH 7.9, 50 mM KCl, 1 mM MgCl2, 1 mM DTT, and 1% DMSO was placed in a semi-micro quartz cuvette. This solution was kept at 37 °C for 30 min. The reaction was initiated by the addition of S-AMP or SAICAR to a final concentration of 0–2 mM (typically 0.20 mM). A280 was monitored every 5 s for 1 h using a Beckman DU650 spectrophotometer.

[4] = target: T1, recombinant human ADSL; experiment: Screening of LOPAC 1280 compounds for ADSL inhibitors; type: biochemical; conditions: 2 µM compound, 0.2 µM ADSL, 0.2 mM S-AMP
Protocol: In each well of UV-transparent 384-well plates, a 45 μL solution containing 0.20 μM recombinant human ADSL and 2 μM screening compounds from the LOPAC 1280 library was placed. The reaction buffer contained 20 mM HEPES, pH 7.9, 50 mM KCl, 1 mM MgCl2, 1 mM DTT, and 1% (v/v) DMSO. Following a 30 min-long incubation at ambient temperature, the reaction was initiated by the addition of S-AMP (final: 0.20 mM). The reaction was monitored by measuring A280 every 10 min for 4 h at 37 °C.
To identify ADSL inhibitors, the effects of LOPAC® 1280 library compounds on the activity of recombinant human ADSL were measured (Figure 2A). […] ADSL activity was monitored by measuring changes in A280 for 4 h at 37 °C. Compounds inhibiting ADSL activity by more than three standard deviations (Z-score < −3, Figure 2A) were counted as hits.

In the case of `O=C(Nc1ccccc1S(=O)(=O)O)c1cccc(C(=O)Nc2ccccc2S(=O)(=O)O)c1` [Compound 1, 2,2’-(1,3-phenylenebis(carbonylimino))bisbenzenesulfonate], the “permeability through blood–brain barrier in vitro” value [1] is reported as “limited permeability; also recorded: comparable to the low -permeability standard”, the “effect on the cellular level of S-AMP and AMP” value [2] is reported as “less effect” and the “increase of cellular level of SAICAR” value [2] is reported as “approximately 2.5 fold”. For the same compound, the “level of AICAR, lower by” value [2] was “approximately 30%” and the EC50 ([2]; Homo sapiens, read-out: EC50, increase of cellular level of SAICAR) was 400 nM.
With `O=C(Nc1ccccc1)c1cccc(C(=O)Nc2ccccc2)c1` [Compound 3, N, N’-diphenylisopthalamide] the “inhibition of ADSL” value ([3]; concentrations tested up to 30 μM) was “did not inhibit ADSL”.
For `O=C(Nc1cc(C(=O)Nc2ccc(S(=O)(=O)O)cc2S(=O)(=O)O)cc(C(=O)Nc2ccc(S(=O)(=O)O)cc2S(=O)(=O)O)c1)Nc1cc(C(=O)Nc2ccc(S(=O)(=O)O)cc2S(=O)(=O)O)cc(C(=O)Nc2ccc(S(=O)(=O)O)cc2S(=O)(=O)O)c1` [NF-449], the “screening outcome (hit: Z-score < −3)” value [4] was “might be an inhibitor of ADSL”, the “mechanism of ADSL inhibition” value ([3]; Lineweaver-Burk plot) was “competitive” and the Ki ([3]; Lineweaver-Burk plot, read-out: Ki, inhibition of ADSL) was 240 nM. The IC50 ([3]; S-AMP as substrate (0.2 mM), read-out: IC50, inhibition of ADSL) was 1400 nM.
In the case of `N=C(NO)NCCC[C@H](N)C(=O)O` [N^ω-hydroxyl-L-arginine], the “screening outcome (hit: Z-score < −3)” value [4] is reported as “potential ADSL inhibitors” and the “effect on ADSL in subsequent tests after the screen” value [3] is reported as “ADSL became aggregated”.
With `CCCCc1oc2ccccc2c1C(=O)c1cc(I)c(OCCN(CC)CC)c(I)c1` [amiodarone] the “screening outcome (hit: Z-score < −3)” value [4] was “potential ADSL inhibitors” and the “effect on ADSL in subsequent tests after the screen” value [3] was “did not inhibit ADSL”.
